Test system: 935938-334-R-J1-PDC spheroids with HUVEC/MSC, viability
Assay: Anticancer human tumor 935938-334-R-J1-PDC patient-derived small intestine adenocarcinoma cell line growth inhibition [PI3K]
Details: for IC50: curve of first compound; for viability, T/C: stronger effect = lower value
Outline: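 Complex 3D spheroids (cancer cells + endothelial HUVEC + mesenchymal stem cells); drug pairs of targeted agent x inavolisib/alpelisib/duvelisib/copanlisib; half-log series from ~Cmax, max 10 microM if Cmax unknown; endpoint viability.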
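Also: compound exposure lasted seven days before viability was read.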
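For viability, T/C in this document: percent of vehicle DMSO treated spheroid viability so 100% = untreated.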

SMILES: CCN1CCN(Cc2ccc(Nc3ncc(F)c(-c4cc(F)c5nc(C)n(C(C)C)c5c4)n3)nc2)CC1 + CC(Nc1ncnc2nc[nH]c12)c1cc2cccc(Cl)c2c(=O)n1-c1ccccc1
- IC50 (second compound 0.0316 µM): 0.223 µM
- IC50 (second compound 0.1 µM): 0.246 µM
- IC50 (second compound 0.316 µM): 0.185 µM
- IC50 (second compound 1 µM): 0.215 µM
- IC50 (second compound 3.16 µM): 0.164 µM
- IC50 (second compound 10 µM): 0.0589 µM
- viability, T/C (second compound 0.0316 µM, first compound 0.00316 µM): 90.2%
- viability, T/C (second compound 0.0316 µM, first compound 0.01 µM): 85.8%
- viability, T/C (second compound 0.0316 µM, first compound 0.0316 µM): 71.4%
- viability, T/C (second compound 0.0316 µM, first compound 0.1 µM): 58.9%
- viability, T/C (second compound 0.0316 µM, first compound 0.316 µM): 46.8%
- viability, T/C (second compound 0.0316 µM, first compound 1 µM): 37.3%
- viability, T/C (second compound 0.1 µM, first compound 0.00316 µM): 95.7%
- viability, T/C (second compound 0.1 µM, first compound 0.01 µM): 92.6%
- viability, T/C (second compound 0.1 µM, first compound 0.0316 µM): 73.8%
- viability, T/C (second compound 0.1 µM, first compound 0.1 µM): 62.9%
- viability, T/C (second compound 0.1 µM, first compound 0.316 µM): 41%
- viability, T/C (second compound 0.1 µM, first compound 1 µM): 48.2%
- viability, T/C (second compound 0.316 µM, first compound 0.00316 µM): 79.4%
- viability, T/C (second compound 0.316 µM, first compound 0.01 µM): 85%
- viability, T/C (second compound 0.316 µM, first compound 0.0316 µM): 70.3%
- viability, T/C (second compound 0.316 µM, first compound 0.1 µM): 53.4%
- viability, T/C (second compound 0.316 µM, first compound 0.316 µM): 49.1%
- viability, T/C (second compound 0.316 µM, first compound 1 µM): 35.2%
- viability, T/C (second compound 1 µM, first compound 0.00316 µM): 77%
- viability, T/C (second compound 1 µM, first compound 0.01 µM): 86%
- viability, T/C (second compound 1 µM, first compound 0.0316 µM): 66.7%
- viability, T/C (second compound 1 µM, first compound 0.1 µM): 64.4%
- viability, T/C (second compound 1 µM, first compound 0.316 µM): 43.1%
- viability, T/C (second compound 1 µM, first compound 1 µM): 31.5%
- viability, T/C (second compound 3.16 µM, first compound 0.00316 µM): 74.3%
- viability, T/C (second compound 3.16 µM, first compound 0.01 µM): 68%
- viability, T/C (second compound 3.16 µM, first compound 0.0316 µM): 57.5%
- viability, T/C (second compound 3.16 µM, first compound 0.1 µM): 56.8%
- viability, T/C (second compound 3.16 µM, first compound 0.316 µM): 43.6%
- viability, T/C (second compound 3.16 µM, first compound 1 µM): 40.1%
- viability, T/C (second compound 10 µM, first compound 0.00316 µM): 59.3%
- viability, T/C (second compound 10 µM, first compound 0.01 µM): 82.1%
- viability, T/C (second compound 10 µM, first compound 0.0316 µM): 63.4%
- viability, T/C (second compound 10 µM, first compound 0.1 µM): 39%
- viability, T/C (second compound 10 µM, first compound 0.316 µM): 38.3%
- viability, T/C (second compound 10 µM, first compound 1 µM): 34.6%
